Results taken from US20140094465A1, “Compounds as S-Nitrosoglutathione Reductase Inhibitors” (N30 PHARMACEUTICALS, INC., priority 2011, published 2014).

Tests used:
[1] = system: cigarette smoke-induced COPD; experiment: Acute (4 day) cigarette smoke exposure COPD model; assay type: in vivo, mouse; conditions: acute 4 day smoke model
Experimental: The efficacy of GSNOR inhibitors was assessed in a mouse model of chronic obstructive pulmonary disease (COPD) induced by short duration (4 days or 11 days) of exposure to cigarette smoke. Infiltration of inflammatory cells into the bronchoalveolar lavage fluid (BALF) and BALF levels of chemokines involved in inflammation and tissue turnover/repair were measured to assess the influences of GSNOR inhibitors on some of the early events associated with the initiation and progression of COPD.
Efficacy of GSNOR inhibitors against COPD was explored using acute (4 day) and subchronic (11 day) models of cigarette smoke-induced COPD in mice. […] In animal models, changes in lung pathology are only evident after extended (several months) duration of exposure to cigarette smoke, thus making chronic models prohibitive as effective screening tools. More recently, models exploring inflammatory responses after short duration (2 weeks or less) of smoke exposure in mice have been utilized as tools for screening efficacy and mechanisms of action of novel therapeutics against COPD. The key roles of inflammation in the initiation and progression of COPD, make these short duration models relevant for initial tests of efficacy of novel therapeutics.
Female C57Bl/6 mice (N=8 per group) were exposed to cigarette smoke using a whole body exposure chamber. Mice were exposed daily for 4 consecutive days to 4 cycles of smoke from 6 sequential cigarettes (Kentucky 3R4F without filter) with a 30 minute smoke free interval between cycles. GSNOR inhibitors were administered daily via oral dosing at 10 mg/kg/day for 7 days starting 2 days prior to smoke exposure and continuing 1 day post-exposure. The effects of GSNOR inhibitors were assessed by quantitating the numbers of total cells, leukocytes, and leukocytes differentials in the BALF via light microscopy and the levels of BALF chemokines via ELISA at approximately 24 h after the last smoke exposure. The effect of GSNOR inhibitors were compared to vehicle treated controls. The PDE4 inhibitor, roflumilast, was used as the positive control for the study. A group of naïve mice (N=8) was exposed to air and used as a negative control for the study.

[2] = system: cigarette smoke-induced COPD; experiment: Subchronic (11 day) cigarette smoke exposure COPD model; assay type: in vivo, mouse; conditions: subchronic 11 day model
Experimental: Infiltration of inflammatory cells into the bronchoalveolar lavage fluid (BALF) and BALF levels of chemokines involved in inflammation and tissue turnover/repair were measured to assess the influences of GSNOR inhibitors on some of the early events associated with the initiation and progression of COPD. […] In animal models, changes in lung pathology are only evident after extended (several months) duration of exposure to cigarette smoke, thus making chronic models prohibitive as effective screening tools. […] The key roles of inflammation in the initiation and progression of COPD, make these short duration models relevant for initial tests of efficacy of novel therapeutics. Female C57Bl/6 mice (N=10 per group) were exposed to cigarette smoke generated from Marlboro 100 cigarettes without filters. Exposure times were 25 min. on study day 1, 35 min. on study day 2, and 45 min. on study days 3 to 11. GSNOR inhibitors were administered one hour prior to smoke exposure on each day. GSNOR inhibitors were dosed orally at 1 to 10 mg/kg/day for 11 days. […] The effect of GSNOR inhibitors were compared to vehicle treated controls and expressed as percent inhibition of the cigarette smoke induced increases in BALF cell numbers. Roflumilast was used as the positive control for the study and was dosed at 5 mg/kg/day. A group of naïve mice (N=10) was exposed to air and dosed with vehicle as a negative control for the study.

O=c1c2ccc(O)cc2oc(C(F)(F)F)c1[C@H]1CC[C@H](C(=O)O)CC1 [IV-25]
effects compared with roflumilast [1]: comparable to or greater than those observed for roflumilast
BALF chemokines ([1]; oral 10 mg/kg/day for 7 days): restored BALF chemokines towards levels observed in naïve mice
inhibition of smoke-induced increase in eosinophils in BALF ([2]; oral 10 mg/kg/day for 11 days): 57%
inhibition of smoke-induced increase in lymphocytes in BALF ([2]; oral 10 mg/kg/day for 11 days): 24%
inhibition of smoke-induced increase in macrophages in BALF ([2]; oral 10 mg/kg/day for 11 days): 28%
inhibition of smoke-induced increase in neutrophils in BALF ([2]; oral 10 mg/kg/day for 11 days): 25%
inhibition of smoke-induced increase in total cells in BALF ([2]; oral 10 mg/kg/day for 11 days): 26%

O=C(O)c1ccc(-c2c(C(F)(F)F)oc3cc(O)ccc3c2=O)c(F)c1 [IV-38]
inhibition of smoke-induced increase in lymphocytes in BAL ([2]; oral 1 mg/kg/day for 11 days): 62%
inhibition of smoke-induced increase in macrophages in BAL ([2]; oral 1 mg/kg/day for 11 days): 44%
inhibition of smoke-induced increase in neutrophils in BAL ([2]; oral 1 mg/kg/day for 11 days): 68%
inhibition of smoke-induced increase in total cells in BAL ([2]; oral 1 mg/kg/day for 11 days): 53%
effects compared with roflumilast ([2]; roflumilast 5 mg/kg/day): comparable to those of roflumilast
